Assay results reported in patent US20260306491A1, “EGFR INHIBITOR FOR TREATING CANCERS COMPRISING ATYPICAL EGFR MUTATIONS” (ORIC Pharmaceuticals, Inc., priority 2023, published 2026).
Several values for one entry are separate records, joined by “and”; a condition that tells them apart may be missing. Equal entries are not always repeated.

Experiments:
Format in all cases: in vivo, human
[1] = tested on: HER2 exon 20 mutated NSCLC; assay: Clinical evaluation in one subject (Example 12); settings: hemifumarate, 30 mg BID
Description: A subject having HER2 exon 20 mutated NSCLC was enrolled in a clinical study relating to Compound I. The cancer in the subject had been previously treated with pemetrexed/cisplatin, ipilimumab/nivolumab/carboplatin, and pemetrexed/carboplatin/pembrolizumab. The subject was enrolled in a dosing cohort that received 30 mg BID of Compound I in the form of a hemifumarate salt.

[2] = Phase 1 relative bioavailability of capsule and tablet in healthy subjects: safety
Description: A Phase 1, open-label, single dose study was conducted in healthy human subjects to evaluate the relative bioavailability of two formulations of Compound I. The first formulation of Compound I (Treatment A) was in the form of a capsule comprising about 15 mg of Compound I in the form of a hemifumarate, while the second formulation of Compound I (Treatment B) was in the form of a tablet comprising about 10 mg of Compound I in the form of a malonate and pharmaceutically acceptable excipients. The primary objective of the study was to evaluate the relative bioavailability (BA) of Treatment A and Treatment B administered as a single oral dose under fasting conditions in healthy adult subjects. A secondary objective was to evaluate the safety and tolerability of single dose administration of Compound I Treatment B under fasting conditions. The endpoints of the study were AUC0-last, AUC0-24, AUC0-inf, AUC % extrap, Cmax, Tmax, Kel, t½, CL/F, and Vz/F for Treatment A and Treatment B. The endpoints also included Aetl-t2, Ae, CLr, Fet1-t2, and Fe from Treatment B in period 2. A secondary endpoint included treatment-emergent AEs (TEAEs), clinical laboratory tests, vital signs, and 12 lead electrocardiogram (ECGs).
Methodology: The study was conducted as an open-label, single-dose study. Screening of subjects occurred within 28 days prior to the first dosing. The study was conducted as a randomized, 2-period, crossover study to assess the relative BA of Treatment A and Treatment B. On Day 1 of Period 1 and of Period 2, a single oral dose of Treatment A or Treatment B were administered under fasting conditions. Blood samples for PK were collected pre-dose and through 216 hours post-dose. Urine samples for PK were collected pre-dose and through 48 hours post-dose from subjects randomized to Period 2 Treatment B (tablets). There was a washout period of at least 10 days between dosing in each period. Safety was monitored throughout the study by repeated clinical and laboratory evaluations. Discontinued subjects were not replaced. All 30 enrolled subjects completed the study and were included in the PK and safety analyses.
60 mg Compound I in the form of Treatment B (6×10 mg tablets) was administered at Hour 0 on Day 1 under fasting conditions along with approximately 240 mL of water after a 10-hour fast. The total duration of participation including the screening period for each subject was approximately 8 weeks. There were 2 periods of approximately 14 days each; washout phase was 10 days between both doses. 60 mg of Compound I in the form of Treatment A (4×15 mg capsules) was administered to subjects at Hour 0 on Day 1 under fasting conditions along with approximately 240 mL of water after a 10-hour fast.
Plasma samples for the analysis of Compound I were collected at the following time points relative to dosing on Day 1 of each period: pre-dose and at 0.5, 1, 2, 3, 4, 5, 6, 7, 8, 10, 12, 16, 24, 36, 48, 72, 96, 120, 144, and 216 hours post-dose. Safety was evaluated by TEAEs, clinical laboratory tests, vital signs, 12 lead ECGs, and physical examinations. An analysis of variance (ANOVA) was performed on the natural log (ln)-transformed AUC0-last, AUC0-inf, and Cmax. The ANOVA model included sequence, treatment, and period as fixed effects, and subject nested within sequence as a random effect, and included calculation of least-squares means (LSMs) as well as the difference between treatment LSMs. Ratios of LSMs were calculated using the exponentiation of the difference between treatment LSMs from the analyses on the In-transformed AUC0-last, AUC0-inf, and Cmax. […] Safety was evaluated by clinical laboratory tests, physical examination, vital signs, 12 lead ECGs, and adverse events (AEs). There was no inferential statistics performed.

[3] = tested on: EGFR exon 20 insertion mutated NSCLC; assay: Clinical study: duration of treatment and antitumor response, EGFR exon 20 insertion mutated NSCLC (Example 10); settings: oral hemifumarate, one value per subject
Description: A clinical study was conducted using Compound I in human subjects having non-small cell lung cancer (NSCLC) comprising EGFR exon 20 insertion mutations, HER2 exon 20 insertion mutations, or HER2 amplification or overexpression. A total of 50 human subjects having non-small cell lung cancer comprising one or more EGFR exon 20 insertion mutations, HER2 exon 20 insertion mutations, or HER2 amplification or overexpression were enrolled in the study as of Jul. 31, 2023 with data collected as of Sep. 26, 2023. The subjects were enrolled into one of ten dosing cohorts that were each orally administered Compound I in the form of a hemifumarate salt as shown in Table 13 (QD=once per day; BID=twice per day).
Duration of treatment and antitumor responses achieved in evaluable subjects with EGFR exon 20 insertion mutated NSCLC (dose level greater than or equal to 45 mg TDD and at least one post-baseline tumor assessment) who were administered Compound I in the form of a hemifumarate salt are set forth in Tables 19 and 20, respectively.

[4] = 60 mg single oral, healthy subjects
[5] = 60 mg single oral, healthy subjects (30)
[6] = overall, 60 mg single oral, mild

C=CC(=O)Nc1cc(Nc2cc(N3OCC[C@@H]3c3cc(F)cc(F)c3)ncn2)c(OC)cc1N1CCC(N2CCN(C3CC3)CC2)CC1 [Compound I, N-[2-[4-(4-cyclopropyl-1-piperazinyl)-1-piperidinyl]-5-[[6-[(3R)-3-(3,5-difluorophenyl)-2-isoxazolidinyl]-4-pyrimidinyl]amino]-4-methoxyphenyl]-2-propenamide]
Non-target lesions response ([1]; after cycle 1): non-CR/non-PD
Reduction of all target lesions ([1]; after cycle 1 (28 days)): 100%
Tumor response ([1]; after cycle 1, confirmed end of cycle 2): partial response
Duration of dosing at data cutoff ([1]; continuing): on dosing cycle 3
EGFR-related adverse events ([1]; data cutoff Sep. 26, 2023): Grade 2 rash and Grade 2 nausea
Reduction of all target lesions ([1]; end of cycle 2): 100%
Safety and tolerability ([2]; 60 mg single oral (capsule or tablet), fasting, healthy subjects): generally safe and well tolerated
Clinical laboratory tests, vital signs, 12-lead ECG, physical examination [2, 4]: no clinically significant findings or trends
Deaths, serious adverse events (SAEs), or TEAEs leading to discontinuation [2, 4]: no deaths, serious adverse events (SAEs), or TEAEs leading to subject discontinuation
Severe TEAEs [2, 5]: No severe TEAEs were reported
Subjects reporting TEAEs [2, 5]: 47%
Subjects reporting TEAEs, number [2, 5]: 14 n
Subjects with TEAEs of maximum severity mild [2, 5]: 33%
Subjects with TEAEs of maximum severity mild, number [2, 5]: 10 n
Subjects with TEAEs of maximum severity moderate [2, 5]: 13%
Subjects with TEAEs of maximum severity moderate, number [2, 5]: 4 n
Subjects with TEAEs related to the study drug [2, 5]: 40%
Subjects with TEAEs related to the study drug, number [2, 5]: 12 n
Constipation (TEAE) [2, 6]: 10%
Constipation (TEAE), number of subjects [2, 6]: 3 n
Dry skin (TEAE) [2, 6]: 10%
Dry skin (TEAE), number of subjects [2, 6]: 3 n
Epistaxis (TEAE) [2, 6]: 10%
Epistaxis (TEAE), number of subjects [2, 6]: 3 n
Papular rash (TEAE) [2, 6]: 10%
Papular rash (TEAE), number of subjects [2, 6]: 3 n
Duration of treatment ([3]; dosing cohort 30 BID): ongoing
Duration of treatment ([3]; dosing cohort 45 QD): 84 days and ongoing and 134 days and 28 days
Duration of treatment ([3]; dosing cohort 60 QD): 33 days and ongoing and 20 days
Duration of treatment ([3]; dosing cohort 75 QD): 90 days and 109 days and 20 days and ongoing
Duration of treatment ([3]; dosing cohort 90 QD): 28 days and 52 days
